# Target: T1, APP-CTF (Homo sapiens, UniProt P05067)
# T1 construct: this protein was designated α-secretase-derived APP CTF (CTF83) on the basis of molecular weight; expressed in transfected cells
# Experiment: Photoaffinity labelling of APP and APP CTF in H4 cell membrane fractions and competition
# Format: binding
# Conditions: photoprobe 25 μM, competitor 200 μM
# Procedure: Photoaffinity labelling. All experiments used the following general protocol. Samples (recombinant or synthetic peptides, cell lysates and membrane preparations) were exposed in borosilicate test tubes to ultraviolet light (350 nm) in a Rayonet Photoreactor R100 (RPR-3500 lamps, Southern New England Ultra Violet Company) in a cold room (4° C.) for 30 minutes or as otherwise noted. Crosslinked samples were analyzed by ELISA for biotin incorporation, or analyzed directly by SDS-PAGE (Criterion-XT, Bio-Rad), or after precipitation with streptavidin ultralink plus beads (Pierce). After immunblotting, proteins were detected using chemiluminesence (ECL Plus, GEHealthcare) or near-infrared fluorescence (LiCor Odyssey). Full-length APP and APP CTFs (CTF83, CTF99) were detected with CT20, a rabbit polyclonal antibody against the C-terminus of APP. Biotin was detected with an affinity-purified rabbit polyclonal antibody (Bethyl). Cell-based screens for amyloid-β modulation.
# T1 sequence (P05067 688-770 limits assumed): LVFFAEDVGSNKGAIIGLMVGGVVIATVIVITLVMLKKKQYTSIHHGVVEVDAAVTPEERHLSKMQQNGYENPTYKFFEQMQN
structure (smiles),measurement,value
"O=C(O)c1cc(C=Cc2ccc(C=Cc3ccc(O)c(C(=O)O)c3)cc2)ccc1O [X-34, 1,4-bis(3-carboxy-4-hydroxyphenylethenyl)-benzene]",competition of APP-CTF labeling by Fen-B and Flurbi-BpB,decreases labeling of APP-CTF

# Reference: patent US20110021471A1, “REDUCING Abeta42 LEVELS AND Abeta AGGREGATION” (priority 2007, published 2011)
